Test results taken from US5747466A, “3-deoxy-3-descladinose derivatives of erythromycins A and B” (Abbott Laboratories, priority 1996, dated 1998).
Like-named read-outs stand apart in the source and are kept apart here.

Columns and labels:
Experiment in all cases: In vitro antibacterial activity (MIC), agar dilution
[1] = system: ESCHERICHIA COLI DC-2; type: cell-based; settings: E. coli DC-2; BHI agar, 35-37 °C, 20-24 h
[2] = system: ESCHERICHIA COLI KNK 437; type: cell-based
[3] = system: PSEUDOMONAS AERUGINOSA K799/61; type: cell-based; settings: P. aeruginosa K799/61; BHI agar, 35-37 °C, 20-24 h
[4] = system: PSEUDOMONAS AERUGINOSA 5007; type: cell-based; settings: P. aeruginosa 5007; BHI agar, 35-37 °C, 20-24 h
[5] = system: PSEUDOMONAS AERUGINOSA DPHD-5263; type: cell-based; settings: P. aeruginosa DPHD-5263; BHI agar, 35-37 °C, 20-24 h
[6] = system: PSEUDOMONAS AERUGINOSA K799/WT; type: cell-based; settings: P. aeruginosa K799/WT; BHI agar, 35-37 °C, 20-24 h
[7] = system: STAPHYLOCOCCUS AUREUS A5177; type: cell-based; settings: S. aureus A5177; BHI agar, 35-37 °C, 20-24 h
[8] = system: STR[…] 508; type: cell-based, Streptococcus agalactiae; settings: S. agalactiae CMX 508; BHI agar, 35-37 °C, 20-24 h
Procedure: (§1) Representative compounds of the present invention were assayed in vitro for antibacterial activity as follows: Twelve petri dishes containing successive aqueous dilutions of the test compound mixed with 10 mL of sterilized Brain Heart Infusion (BHI) agar (Difco 0418-01-5) were prepared. Each plate was inoculated with 1:100 (or 1:10 for slow-growing strains, such as Micrococcus and Streptococcus) dilutions of up to 32 different microorganisms, using a Steers replicator block. The inoculated plates were incubated at 35°-37° C. for 20 to 24 hours. In addition, a control plate, using BHI agar containing no test compound, was prepared and incubated at the beginning and end of each test.
(§2) An additional plate containing a compound having known susceptibility patterns for the organisms being tested and belonging to the same antibiotic class as the test compound was also prepared and incubated as a further control, as well as to provide test-to-test comparability. Erythromycin A was used for this purpose.
(§3) After incubation, each plate was examined. The minimum inhibitory concentration (MIC) was defined as the lowest concentration of drug yielding no growth, a slight haze, or sparsely isolated colonies on the inoculum spot as compared to the growth control.

[9] = system: PSEUDOMONAS AERUGINOSA BMH10; type: cell-based; settings: P. aeruginosa BMH10; BHI agar, 35-37 °C, 20-24 h
[10] = system: KLEBSIELLA PNEUMONIAE ATCC 8045; type: cell-based; settings: K. pneumoniae ATCC 8045; BHI agar, 35-37 °C, 20-24 h
[11] = system: STAPHYLOCOCCUS AUREUS A-5278; type: cell-based; settings: S. aureus A-5278; BHI agar, 35-37 °C, 20-24 h
[12] = system: ESCHERICHIA COLI H560; type: cell-based; settings: E. coli H560; BHI agar, 35-37 °C, 20-24 h
[13] = system: STREPTOCOCCUS PYOGENES PIU 2548; type: cell-based; settings: S. pyogenes PIU 2548; BHI agar, 35-37 °C, 20-24 h
[14] = system: STAPHYLOCOCCUS AUREUS NCTC10649M; type: cell-based; settings: S. aureus NCTC10649M; BHI agar, 35-37 °C, 20-24 h
[15] = system: EN[…] ATCC 8043; type: cell-based, Enterococcus faecium; settings: E. faecium ATCC 8043; BHI agar, 35-37 °C, 20-24 h
Procedure: as §1, §2, §3

[16] = system: ESCHERICHIA COLI SS; type: cell-based; settings: E. coli SS; BHI agar, 35-37 °C, 20-24 h
[17] = system: STAPHYLOCOCCUS AUREUS CMX 553; type: cell-based; settings: S. aureus CMX 553; BHI agar, 35-37 °C, 20-24 h
[18] = system: STAPHYLOCOCCUS EPIDERMIDIS 3519; type: cell-based
[19] = system: M[…] ATCC 9341; type: cell-based, Micrococcus luteus; settings: M. luteus ATCC 9341; BHI agar, 35-37 °C, 20-24 h
Procedure: as §1, §2, §3

[20] = system: M[…] ATCC 4698; type: cell-based, Micrococcus luteus; settings: M. luteus ATCC 4698; BHI agar, 35-37 °C, 20-24 h
Procedure: as §1, §2, §3

[21] = system: MYCOBACTERIUM SMEGMATIS ATCC 114; type: cell-based; settings: M. smegmatis ATCC 114; BHI agar, 35-37 °C, 20-24 h
[22] = system: PROVIDENCIA STUARTII CMX 640; type: cell-based
[23] = system: STAPHYLOCOCCUS AUREUS CMX 642A; type: cell-based; settings: S. aureus CMX 642A; BHI agar, 35-37 °C, 20-24 h
[24] = system: ESCHERICHIA COLI JUHL; type: cell-based
[25] = system: PSEUDOMONAS AERUGINOSA DPHD-2862; type: cell-based; settings: P. aeruginosa DPHD-2862; BHI agar, 35-37 °C, 20-24 h
[26] = system: ACINETOBACTER CALCOACETICUS CMX 669; type: cell-based; settings: A. calcoaceticus CMX 669; BHI agar, 35-37 °C, 20-24 h
[27] = E. coli KNK 437, BHI agar, 35-37 °C, 20-24 h
[28] = S. epidermidis 3519, BHI agar, 35-37 °C, 20-24 h
[29] = P. stuartii CMX 640, BHI agar, 35-37 °C, 20-24 h

| Compound | minimum inhibitory concentration (MIC) [1] | minimum inhibitory concentration (MIC) [3] | minimum inhibitory concentration (MIC) [4] | minimum inhibitory concentration (MIC) [5] | minimum inhibitory concentration (MIC) [6] | minimum inhibitory concentration (MIC) [7] | minimum inhibitory concentration (MIC) [8] | minimum inhibitory concentration (MIC) [9] | minimum inhibitory concentration (MIC) [10] | minimum inhibitory concentration (MIC) [11] | minimum inhibitory concentration (MIC) [12] | minimum inhibitory concentration (MIC) [13] | minimum inhibitory concentration (MIC) [14] | minimum inhibitory concentration (MIC) [15] | minimum inhibitory concentration (MIC) [17] | minimum inhibitory concentration (MIC) [19] | minimum inhibitory concentration (MIC) [20] | minimum inhibitory concentration (MIC) [21] | minimum inhibitory concentration (MIC) [23] | minimum inhibitory concentration (MIC) [25] | also measured |
| --- | --- | --- | --- | --- | --- | --- | --- | --- | --- | --- | --- | --- | --- | --- | --- | --- | --- | --- | --- | --- | --- |
| CC[C@H]1OC(=O)[C@H](C)[C@@H](O[C@H]2C[C@@](C)(OC)[C@@H](O)[C@H](C)O2)[C@H](C)[C@@H](O[C@@H]2O[C@H](C)C[C@H](N(C)C)[C@H]2O)[C@](C)(O)C[C@@H](C)C(=O)[C@H](C)[C@@H](O)[C@]1(C)O [Ery A, Erythromycin A, reference compound] | 100 | 1.56 | > 100 | 100 | 100 | 1.56 | 0.02 | 100 | 25 | > 100 | 25 | 6.2 | 0.2 | 0.05 | 0.2 | 0.02 | 0.2 | 25 | 0.2 | 100 | minimum inhibitory concentration (MIC) [2]: 100; minimum inhibitory concentration (MIC) [16]: 0.2; minimum inhibitory concentration (MIC) [18]: 0.1; minimum inhibitory concentration (MIC) [22]: > 100; minimum inhibitory concentration (MIC) [24]: 50 |
| CC[C@H]1OC(=O)[C@H](C)C[C@H](C)[C@@H](O[C@@H]2O[C@H](C)C[C@H](N(C)C)[C@H]2O)[C@](C)(OC)C[C@@H](C)C(=O)[C@H](C)[C@H]2N(CCc3ccc(Oc4ccccc4)cc3)C(=O)O[C@]12C [Ex. 5] | 12.5 | > 100 | > 100 | > 100 | > 100 | 6.2 | 1.56 | > 100 | > 100 | 25 | > 100 | 3.1 | 6.2 | 1.56 | 6.2 | 3.1 | 1.56 | 3.1 | 12.5 | > 100 | minimum inhibitory concentration (MIC) [2, 27]: > 100; minimum inhibitory concentration (MIC) [26]: > 100; minimum inhibitory concentration (MIC) [18, 28]: 12.5; minimum inhibitory concentration (MIC) [22, 29]: > 100 |
| CC[C@H]1OC(=O)[C@H](C)C[C@H](C)[C@@H](O[C@@H]2O[C@H](C)C[C@H](N(C)C)[C@H]2O)[C@](C)(OC)C[C@@H](C)C(=NOC)[C@H](C)[C@@H](O)[C@]1(C)O [Ex. 6] | 0.78 | > 100 | > 100 | 50 | > 100 | 6.2 | 0.39 | > 100 | > 100 | > 100 | 50 | 0.78 | 6.2 | 0.78 | 6.2 | 0.39 | 0.39 | 3.1 | 6.2 | > 100 | minimum inhibitory concentration (MIC) [2, 27]: 25; minimum inhibitory concentration (MIC) [26]: > 100; minimum inhibitory concentration (MIC) [18, 28]: 12.5; minimum inhibitory concentration (MIC) [22, 29]: 100 |
